# Key:
# [1] = tested on: ARE activity in CWR22v1 cells (ARwt and ARv7); assay: ARE-luciferase reporter in CWR22v1 cells; format: cell-based; conditions: 10 μM casodex or MDV3100, 48 h, without androgen (EtOH)
# Experimental: FIG. 4. Effect of T6 on basal level of ARE expression in CWR22v1 cells. CWR22v1 cells were transiently transfected with ARE-luciferase. Cells were maintained for 48 h without (EtOH) and in the presence of 100 nM of peptidomimetic or volume equivalent of vehicle (DMSO) control or 10 μM of casodex or MDV3100.
# ARv7 regulated genes = assay: Q-PCR of ARv7 regulated genes; format: cell-based; conditions: data not shown
# Description: Finally, confirmation of the role of T6 in modulating ARv7 driven transcription was obtained by evaluation of the gene expression of ARv7 regulated genes.
# [2] = tested on: triple negative breast cancer cell line; assay: Growth inhibition of breast cell lines (MTT); format: cell-based; conditions: 72 h
# Experimental: FIG. 6. Testing of oligo-benzamides for growth inhibition of breast cell lines.
# (§1) Cell proliferation rates were measured by using MTT Cell Viability Assay in 96-well micro plates. Model cells were seeded in 96-well plates (2×10^3 cells/well) in DMEM or RPMI medium containing 10% serum. After an overnight incubation, cells were treated with varying concentrations of oligo-benzamides for 72 h and growth inhibition was determined by using traditional MTT assay (Sigma) following manufacturer's instructions.
# ovarian cancer cell line = assay: Growth inhibition of ovarian cell lines (MTT); format: cell-based; conditions: 72 h
# Experimental: FIG. 7. Testing of oligo-benzamides for growth inhibition of ovarian cell lines.
# Human Breast cancer cells MCF7, ZR75, glioma cells U87, T98G, LN229, and the ovarian cancer cell line SKOV3 were obtained from the American Type Culture Collection (ATCC) and were maintained using ATCC recommended media.
# as §1
# U87 = assay: Growth inhibition of brain cancer cell line U87 (MTT); format: cell-based, Human; conditions: 72 h
# Experimental: (§2) FIGS. 8A-B. Testing of oligo-benzamides for growth inhibitor of two brain cancer cell lines. (FIG. 8A) Results for cell line U87. (FIG. 8B) Results for cell line LN229. […] Human Breast cancer cells MCF7, ZR75, glioma cells U87, T98G, LN229, and the ovarian cancer cell line SKOV3 were obtained from the American Type Culture Collection (ATCC) and were maintained using ATCC recommended media. Cell proliferation rates were measured by using MTT Cell Viability Assay in 96-well micro plates. Model cells were seeded in 96-well plates (2×10^3 cells/well) in DMEM or RPMI medium containing 10% serum. After an overnight incubation, cells were treated with varying concentrations of oligo-benzamides for 72 h and growth inhibition was determined by using traditional MTT assay (Sigma) following manufacturer's instructions.
# LN229 = assay: Growth inhibition of brain cancer cell line LN229 (MTT); format: cell-based, Human; conditions: 72 h
# Experimental: as §2
# CH157 = assay: Growth inhibition of meningioma cell line CH157; format: cell-based
# Experimental: (§3) FIGS. 10A-B. Testing of oligo-benzamide (TK 11) for growth inhibitor of two meningioma brain cancer cell lines. (FIG. 10A) Results for cell line CH157. (FIG. 10B) Results for cell line IOMM-LEE.
# as §1
# IOMM-LEE = assay: Growth inhibition of meningioma cell line IOMM-LEE; format: cell-based
# Experimental: as §3, §1
# [3] = tested on: prostate cancer cell line; assay: Growth inhibition of prostate cancer cell line; format: cell-based
# [4] = tested on: IOSE immortalized normal ovarian cells; assay: Growth of normal ovarian cells; format: cell-based
# Experimental: FIG. 11. Testing of oligo-benzamides on growth of normal ovarian cells. IOSE are immortalized normal ovarian cells.
# as §1
# [5] = biological target: T1, PELP1 interaction with estrogen receptor (Homo sapiens, UniProt P03372); assay: PELP1-ER interaction, GST pull down assay; format: binding; conditions: TK11 500 nM, purified ER, GST-PELP1, E2
# T1 construct: purchased
# T1 sequence (P03372 1-595): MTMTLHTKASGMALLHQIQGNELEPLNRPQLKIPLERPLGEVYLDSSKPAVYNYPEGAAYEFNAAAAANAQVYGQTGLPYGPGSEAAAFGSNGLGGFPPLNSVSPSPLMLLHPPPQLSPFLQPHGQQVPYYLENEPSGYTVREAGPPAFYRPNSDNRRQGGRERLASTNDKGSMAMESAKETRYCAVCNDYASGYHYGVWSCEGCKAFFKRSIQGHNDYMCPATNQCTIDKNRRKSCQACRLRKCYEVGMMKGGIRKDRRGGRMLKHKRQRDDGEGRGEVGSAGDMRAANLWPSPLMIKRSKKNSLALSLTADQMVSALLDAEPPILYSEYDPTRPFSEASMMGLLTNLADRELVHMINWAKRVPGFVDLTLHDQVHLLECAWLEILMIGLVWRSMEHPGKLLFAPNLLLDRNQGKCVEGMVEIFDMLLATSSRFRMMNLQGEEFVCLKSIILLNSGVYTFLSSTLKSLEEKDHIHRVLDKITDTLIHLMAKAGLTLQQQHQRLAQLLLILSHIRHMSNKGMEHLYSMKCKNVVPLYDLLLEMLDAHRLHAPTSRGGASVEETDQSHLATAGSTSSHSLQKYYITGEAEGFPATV
# Experimental: FIGS. 12A-C. Testing of oligo-benzamides for growth inhibition of estrogen driven proliferation. (FIG. 12A) Structure of peptidomimetics used in the assays. (FIG. 12B) Effect of tribenzamimetics on E2 driven proliferation using ZR75 model cells. (FIG. 12C) Effect of tribenzamides on PELP1-ER interaction. *, P<0.05.
# Purified commercially available estrogen receptor (ER) was incubated with biotin-con or biotin-TK11 peptidomimetic in the presence of estrogen (E2). TK11 interaction with ER was determined using avidin immunoprecipitation (IP) followed by western blotting. For some experiments, MCF-7 cells were stimulated with estrogen (E2), nuclear lysates were prepared and incubated with biotin-con or biotin-TK11 peptidomimetic. TK11 interactions with endogenous ER were analyzed by avidin IP. For some experiments, purified ER, GST-PELP1 was incubated in the presence of E2 and ability of control or TK11 (500 nM) to compete PELP1 interaction with ER was determined GST pull down assay.
# [6] = tested on: Tamoxifen therapy resistant MCF7-HER2 and MCF7-TAM cells; assay: Therapy resistance assay (MTT), hormonal therapy resistant cells; format: cell-based, Human; conditions: tamoxifen (10^-7M) containing media, P<0.05
# Experimental: FIG. 13. Testing of oligo-benzamides for growth inhibition of hormonal therapy resistant cells.
# Tamoxifen (Tam) therapy resistant MCF7-HER2 and MCF7-TAM cells were cultured in tamoxifen (10^-7M) containing media in the presence or absence of TK11 and proliferation was measured by MTT assay (Sigma) following manufacturer's instructions.
Compound,basal ARE activity in CWR22v1 cells [1],expression of a panel of ARv7 regulated genes (Q-PCR) (ARv7 regulated genes),"growth inhibition, triple negative breast cancer cell line [2]","growth inhibition, ovarian cancer cell line (ovarian cancer cell line)","growth inhibition, brain cancer cell line U87 (U87)","growth inhibition, brain cancer cell line LN229 (LN229)","growth inhibition, meningioma cell line CH157 (specificity versus prostate cancer cell line) (CH157)","growth inhibition, meningioma cell line IOMM-LEE (specificity versus prostate cancer cell line) (IOMM-LEE)",potency in inhibiting prostate cancer cell line [3],potency in inhibiting growth of normal ovarian cells (IOSE) [4],blocking PELP1 oncogene interactions with estrogen receptor [5],growth of hormonal therapy resistant cells [6]
"CNC(=O)c1ccc(N2C(=S)N(c3ccc(C#N)c(C(F)(F)F)c3)C(=O)C2(C)C)cc1F [MDV3100, reference compound]",neither casodex nor MDV3100 could significantly affect,could not affect,,,,,,,,,,
CC(C)COc1cc(C(N)=O)ccc1NC(=O)c1ccc(NC(=O)c2ccc([N+](=O)[O-])c(OCCO)c2)c(OCC(C)C)c1 [TK11],,,high potencies,high potency,high potency,high potency,higher specificity,higher specificity,weak potency,weak potency,very efficient in blocking,significantly inhibited
"CC(O)(CS(=O)(=O)c1ccc(F)cc1)C(=O)Nc1ccc(C#N)c(C(F)(F)F)c1 (centres unmarked) [casodex, reference compound]",neither casodex nor MDV3100 could significantly affect,could not affect,,,,,,,,,,

# Source: US9458095B2, “Oligo-benzamide compounds and their use in treating cancers” (The Board of Regents of the University of Texas System, priority 2011, dated 2016)
